Source: patent publication US8569482B2, “Nanoparticulate probe for in vivo monitoring of tissue oxygenation” (priority 2003, dated 2013)
Values joined by “and” are separate entries in the source; they are usually repeats but may differ in a detail not shown here. Equal values may be shown once. “Also recorded” adds a separate entry of the source.

What was measured:
[1] = tested on: mouse aortic endothelial cells (MAECs); format: cell-based
[2] = tested on: Human arterial smooth muscle cells (HASMCs)
Procedure: Cultute of Smooth Muscle Cells Human arterial smooth muscle cells (HASMCs) were obtained from Clonetics, San Diego, Calif. at passage 4. Cells were cultured and passed in Ham's medium containing 225 ml of DMEM, 225 ml of F-12 medium, 50 ml of FBS (10%), 5 ml of glutamate and 5 ml of antibiotics in a final volume of 500 ml. Cell cultures were maintained at 37° C. under 95% air/5% CO2 environment in 35 mm dishes. HASMCs up to passage 11 were used in the current study.
Preparation of Particulates for Cell Culture Studies Fine crystals of freshly synthesized LiNc-BuO were suspended in Ham's medium (10 mg/0.5 ml) and sonicated ten times for 30 sec on ice with a probe sonicator at a setting of 5. The particulate mixture was cooled on ice for 1 min between two successive 30 sec burst of sonication. […] The size of the particulates for intracellular delivery was <2 μm as determined by optical microscopy.
Internalization of Particulates into Smooth Muscle Cells HMSMCs, at 70% confluence (10^4 cells/dish), in 1 ml Ham's medium were treated with 50 μl of LiNc-BuO particulate suspension that contained particulates of <2 μm prepared by the procedure as mentioned before. […] Cell viability was assessed by light microscopy and Alamar Blue assay according to the manufacturer's recommendations.

[3] = tested on: bovine lung microvascular endothelial cells (BLMVECs)
Procedure: Bovine Lung Microvasular Endothelial Cells (BLMVECs) Culture The BLMVECs used in this study were obtained from the VEC Technologies, Inc, New York. BLMVECs cultured in MEM were maintained in 75 mm flasks at 37° C. in a humidified atmosphere of 5% CO2/95% air and grown to contact-inhibited monolayers with a typical cobblestone morphology [157]. Cells from each primary flask were detached with 0.05% trypsin, resuspended in fresh medium, and cultured in complete medium to 70% confluency for other studies. Cells from passages 10-14 were used in all the experiments.
Preparation of Particulates for Cell Culture Studies Microcrystalline particulates of LiNc-BuO were suspended in complete MEM medium (10 mg/0.5 ml) and sonicated for 30 sec pulse for ten times on ice with a probe sonicator at a setting of 5. The particulate suspension was cooled for 1 min between two successive 30 sec bursts of sonication. At the end of sonication, the suspension was placed on ice for exactly 2 min to allow the heavier particulates to settle down at the bottom of the tube and the supernatant liquid was transferred to a separate tube for intracellular delivery. The solution contained fine particulates of LiNc-BuO with a particulate size <2 μm. All the preparations were carried out under sterile conditions.
Internalization of Particulates into Endothelial Cells BLMVECs, at 70% confluence (10^4 cells/35 mm dish), in 1 ml complete MEM were treated with 50 μl of LiNc-BuO particulate suspension that contained particulates of <2 μm prepared by procedure as described under Materials and Methods. The cells were maintained at 37° C. under 95% air/5% CO2 environment. At 6 h intervals, for 72 h, cells were examined under light microscope for internalization of LiNc-BuO particulates. […] The cell pellet was resuspended in MEM containing glucose (0.5 g per 500 ml), at a density of 2×10^5 cells/ml and used for EPR analysis. Cells after LiNc-BuO internalization and repeated washings were photographed under an inverted microscope while still adherent to the substratum of the 35 mm dish. Cell viability was assessed by light microscopy and Alamar Blue assay according to the manufacturer's recommendations. Cell separation by trypsinization was avoided to keep the cell morphology and function in tact.
A 20 μL volume of the cell suspension containing 4,000 cells and 10 μM TAM was drawn into a gas-permeable Teflon tube and subjected to EPR spectroscopy as described below. The measurements were also carried out with Menadione (50 μM) and KCN (100 μM).
EPR Measurements The EPR measurements were carried out using a Bruker X-band (9.8 GHz) spectrometer (Bruker Instruments, Karlshrue, Germany) equipped with TM110 cavity. EPR spectral acquisitions were performed using custom-developed data acquisition software (SPEX) that was capable of fully automated data acquisition and processing. Unless otherwise mentioned, the EPR line-widths reported are peak-to-peak widths (.Bpp) of the first derivative spectra.
Simultaneous Measurements of LiNc-BuO and TAM Line-Shapes LiNc-BuO and TAM were used as site specific oximetry probes to measure intra- and extracellular oxygen concentration, respectively. Both LiNc-BuO and TAM give a single-line EPR spectrum, whose amplitude (intensity) and width depend on the amount/concentration of the probe and oxygen, respectively.

[4] = Reduction of particle size using high frequency ultrasound; format: physicochemical; conditions: after 20 kHz then 269-1062.4 kHz sonication in water
Procedure: LiNc-BuO particles were crushed to a fine powder using a spatula. LiNc-BuO (20 mg) was suspended in […] of water without any additives (a total of 5 samples were made). The samples were then sonicated at 20 kHz frequency. 20 kHz sonolysis was conducted at a power setting of “2” for a total time of 5 minutes. All 5 samples were sonicated in this way. The samples were then allowed to sit overnight. The following day, the supernatant was extracted from all samples and placed in a measuring cylinder to make a 5 ml sample of suspended, small particles in aqueous solution. 1 ml of this stock was used to determine the particle size. The remaining 4 ml stock LiNc-BuO suspension was sonicated at various frequencies in the following way: 1 ml stock was placed in a test tube and suspended in the ultrasound bath which was operated at either 269, 354, 803 or 1062.4 kHz and a power of 60 W for a total time of 10 minutes. The 1 ml sample was then diluted to 2 ml using Milli-Q filtered water and the particle size determined. […] The procedure yielded particulates with mean size, 240 nm, with a min size, 72 nm.

[5] = tested on: gastrocnemius muscle tissue of C3H mice; test: Long-term stability and oxygen response of particulates implanted in gastrocnemius muscle; format: in vivo; conditions: versus original unimplanted particulate, through 180 day study
Procedure: Animal Studies Female C3H mice were used in the present work. The mice were supplied through the Frederick Cancer Research Center Animal Production, Frederick, Md. The animals were received at 6 weeks of age and housed five per cage in climate-controlled rooms and allowed food and acidified water ad lib. The animals were on average 50 days old at the time of experimentation and weighed 25±3 g. Experiments were conducted according to the principles outlined in the Guide for the Care and Use of Laboratory Animals prepared by the Institute of Laboratory Animal Resources, National Research Council.
Implantation of LiNc-BuO in Tumor and Gastrocnemius Muscle of Mice Mice were anesthetized with breathing of isoflurane (1.5%)—air mixture delivered through a nose cone. […]
Stability in Tissues In order to evaluate the long-term stability of these particulates in tissues, we implanted the particulates in the gastrocnemius muscle tissue of mice and performed repeated measurements of pO2 in the same animals over a period of time. […] The EPR spectrum of the particulate in the leg was recorded periodically up to 180 days following the implantation of particulate (FIG. 4). […] Mice were periodically sacrificed through the 180 day study period and tissue pO2 values were assessed to verify the registration of anoxic pO2 in the dead tissue. […]

[6] = Effect of biological oxidoreductants, pH and radiation on EPR stability and oxygen response; format: physicochemical
Excerpt: Effect of Biological Oxidoreductants, pH, Temperature, and Radiation Since our goal was to use the newly synthesized particulate material for biological applications, we thoroughly investigated the EPR stability (paramagnetism) as well as sensitivity of the EPR line-width to molecular oxygen in presence of a variety of biological oxidants, reductants, pH and radiation. […] We also observed that pH of the medium in the range 2-10 had no effect on their EPR sensitivity to oxygen. We also treated the particulates with 15.5 Gy of Cobalt-60 γ-ray irradiation for 10 min and found no effect on the EPR properties of the particulates.

[7] = tested on: K56 (an erythroleukemic cell line) and A 431 (an epidermal carcinoma cell line); conditions: 200 μM; cited from earlier work
[8] = particulates <2 μm, within 18 h
[9] = switching gas between nitrogen and room air

**Q.** Which “effect on oxygen consumption rate (OCR)” value [1] does the source give for `c1ccc2c(c1)[I+]c1ccccc1-2` [DPI, diphenyleneiodonium chloride] here?
**A.** Its value is “complete inhibition of oxygen consumption; also recorded: complete inhibition of the OCR; also recorded: completely blocked”.

**Q.** For “Lithium 5,9,14,18,23,27,32,36-octa-n-butoxy-2,3-naphthalocyanine [LiNc-BuO]”, which “cytotoxicity (light microscopy, Alamar Blue)” value [2] is on record?
**A.** Its value is “no apparent cytotoxicity”.

**Q.** And the “internalization of particulates in cells” value [2, 8]?
**A.** Its value is “almost all the cells in the 35 mm dish internalized the particulates”.

**Q.** And the “cytotoxicity (light microscopy, Alamar Blue)” value [3]?
**A.** Its value is “no cytotoxicity”.

**Q.** What about the “viability of cells that internalized probe (Trypan blue exclusion)” value [3] of the same compound?
**A.** Its value is greater than 95%.

**Q.** And the “mean spin density of particulates internalized in a single cell” value ([3]; in comparison with TAM standard)?
**A.** Its value is 6×10^11 spins/cell.

**Q.** And the “cells that internalized the particulates” value [3, 8]?
**A.** The value was roughly 95%.

**Q.** And the “spin density relative to LiPc” value?
**A.** Its value is “seven-fold higher”.

**Q.** And the “anoxic peak-to-peak EPR line-width” value (0% oxygen, X-band, room temperature)?
**A.** Its value is 210 mg.

**Q.** What about the “peak-to-peak EPR line-width in room air” value (20.9% oxygen (159 mmHg)) of the same compound?
**A.** The value was 1550 mg.

**Q.** And the “peak-to-peak EPR line-width in 100% oxygen” value (100% oxygen, 760 mmHg)?
**A.** The value was 6675 mg.

**Q.** What about the microwave power saturation (X-band) of the same compound?
**A.** Its microwave power saturation is “not saturable for up to 25 mW; also recorded: nonsatuarable up to 25 mW”.

**Q.** What about the “oxygen sensitivity (slope of line-width versus pO2)” value (linear in pO2 range measured (0-160 or 0-760 mmHg)) of the same compound?
**A.** The value was 8.5 mG/mmHg.

**Q.** And the pO2 resolution (physiological range)?
**A.** The pO2 resolution was ~0.2 mmHg and ~0.1 mmHg.

**Q.** What about the “peak-to-peak EPR line-width at 10% oxygen” value (suspended in PBS, 10% oxygen (pO2 76 mmHg)) of the same compound?
**A.** The value was 852 mg.

**Q.** What about the “response time, deoxygenation” value [9] of the same compound?
**A.** Its value is roughly 20 s.

**Q.** And the “response time, oxygenation” value [9]?
**A.** Its value is roughly 1 s.

**Q.** And the “effect of aqueous dispersion media on line-width and lineshape” value (water, PBS, cell culture media)?
**A.** Its value is “not affected”.

**Q.** And the mean particle size [4]?
**A.** Its mean particle size is 240 nm.

**Q.** And the min particle size [4]?
**A.** The min particle size was 72 nm.

**Q.** What about the “oxygen sensitivity of particulates recovered from dead tissue” value [5] of the same compound?
**A.** The value was “not changed”.

**Q.** And the “effect of gamma irradiation on EPR properties” value ([6]; 15.5 Gy Cobalt-60, 10 min)?
**A.** The value was “no effect”.

**Q.** And the “effect of pH on EPR sensitivity to oxygen” value ([6]; pH 2-10)?
**A.** The value was “no effect”.

**Q.** And the “effect of oxidants and reductants on EPR spectrum or oxygen response” value ([6]; superoxide, hydroxyl, H2O2, singlet oxygen, alkylperoxyl, nitric oxide, GSH, ascorbate, 30 min)?
**A.** The value was “did not show any effect”.

**Q.** For `C=C(C)[C@H]1Cc2c(ccc3c2O[C@@H]2COc4cc(OC)c(OC)cc4[C@@H]2C3=O)O1` [rotenone], which “effect on oxygen consumption rate (OCR)” value [1] is on record?
**A.** Its value is “complete inhibition of oxygen consumption; also recorded: complete inhibition of the OCR; also recorded: completely inhibited the consumption of oxygen”.

**Q.** Which “effect on intra- and extracellular pO2 and oxygen gradient” value ([3]; menadione 50 μM, cyanide 100 μM, listed as Menadione) does the source give for `CC1=CC(=O)c2ccccc2C1=O` [menadione] here?
**A.** The value was “did not affect significantly”.

**Q.** What about the “effect on oxygen consumption rate (OCR)” value [1] of the same compound?
**A.** The value was “increased rates of oxygen consumption; also recorded: increased the OCRs”.

**Q.** What about the “increase in OCR” value ([1]; 50 μM) of the same compound?
**A.** Its value is “two-fold increase”.

**Q.** What about the “effect on OCR at lower concentrations” value ([1]; 10 and 50 μM, measured immediately) of the same compound?
**A.** The value was “significant increase in the OCR”.

**Q.** And the “effect on OCR at higher concentrations” value ([1]; 100 and 200 μM, measured immediately)?
**A.** The value was “decrease in the OCR; also recorded: significantly less compared to the control values”.

**Q.** And the “increase of intra- and extracellular pO2” value [7]?
**A.** The value was 10-15%.
